{"source": "patent US20260240798A1", "about": "“SOLID FORMS OF RXFP1 MODULATORS” (ASTRAZENECA AB, priority 2022, published 2026)", "key": {"[1]": {"experiment": "Solubility (pH 7.4) (Test F)", "type": "physicochemical", "conditions": "pH 7.4, aqueous buffer", "description": "Solubility (pH 7.4) (Test F)\nThe assay was conducted according to the Solubility Assay described in pages 164-167 of Wernevik, J. et al., “A Fully Integrated Assay Panel for Early Drug Metabolism and Pharmacokinetics Profiling”, Assay and Drug Development Technologies, 2020, 18(4), 157-179. Where the assay was run multiple times for the same compound, the arithmetic mean is reported."}, "Human Plasma Protein": {"tested_on": "Human Plasma Protein", "experiment": "Human Plasma Protein Binding (Test B)", "type": "in vitro ADME", "conditions": "fraction unbound (fu)", "description": "Human Plasma Protein Binding (Test B)\nThe assay was conducted according to the Human Plasma Protein Binding Assay described in pages 167-170 of Wernevik, J. et al., “A Fully Integrated Assay Panel for Early Drug Metabolism and Pharmacokinetics Profiling”, Assay and Drug Development Technologies, 2020, 18(4), 157-179. Data are reported in Table 1 as fraction unbound (fu) (% free). Where the assay was run multiple times for the same compound, the arithmetic mean is reported."}, "[2]": {"experiment": "Solubility of amorphous Compound (I) in pH 1.2 SGF, turbidimetric method (Test I)", "type": "physicochemical", "conditions": "37° C.", "description": "10 μL of the stock solution was rapidly injected into 990 μL of stabilizer solution containing 0.2% w/w PVPK30 and 0.2% w/w Pluronic F127 and 0.25 mM SDS aqueous solution under a few seconds of ultrasonic treatment to make a 1 mM amorphous nanosuspension. This formulation is further diluted to 0.25 mM with purified water.\nThe bulk concentration in equilibrium with amorphous particles is determined at 37° C. by a turbidimetric method (described in Lindfors et. al., Langmuir, 2006, 22(3), 911-916). Small volumes of drug suspension are successively added directly to a fluorescence cuvette containing 2000 μL simulated gastric fluid pH 1.2 (SGF) and are then mixed to give the desired concentrations. The light scattering intensity at 700 nm is recorded at a scattering angle of 90° as a function of total drug concentration. As a light scattering setup, a Perkin-Elmer LS 55 Luminescence Spectrometer is used, setting both the emission and excitation wavelengths to 700 nm. Slit excitation is set to 2.5 nm and slit emission is set to 5 nm. Particles are allowed to dissolve for at least 30 seconds prior to measurements starting. Data are then collected for 1 minute and a mean light scattering intensity is calculated. The solubility examination was performed within 45 min of the formation of the amorphous nanosuspension.\nAt low concentrations the particles dissolve, while at concentrations above the solubility, the particles remain suspended, leading to an almost linear increase in light scattering intensity as a function of total concentration."}, "[3]": {"experiment": "Solubility of crystalline Form A of Compound (I) in pH 1.2 SGF, shake-flask (Test J)", "type": "physicochemical", "conditions": "simulated gastric fluid pH 1.2 (SGF), thermodynamic from solid, 37° C., 24 h agitation", "description": "Crystalline solubility in simulated gastric fluid pH 1.2 (SGF) was measured using a miniaturized shake-flask method (24 h agitation at 37° C.).\nThe samples were agitated at 37° C. for 24 hours in an Eppendorf shaker, agitation speed 1000 rpm. The samples were then centrifuged at 10000 RPM for 15 minutes, 37° C. Approximately 500 μL of the supernatant was withdrawn with automatic pipette to a new vial and centrifuged again for 15 min at 10000 rpm, 37° C. Then from the second centrifugation, samples were taken with automatic pipette to final dilution. pH was measured in the equilibrated remaining sample solution after the second centrifugation. XRPD was used to confirm that no form change had occurred."}, "human RXFP1 [4]": {"biological_target": "T1, human RXFP1 (Homo sapiens, UniProt Q9HBX9)", "T1 construct": "expressed in transfected cells; host or cells: HEK293s cells, vector pIRESneo3", "T1 sequence (Q9HBX9 1-757)": "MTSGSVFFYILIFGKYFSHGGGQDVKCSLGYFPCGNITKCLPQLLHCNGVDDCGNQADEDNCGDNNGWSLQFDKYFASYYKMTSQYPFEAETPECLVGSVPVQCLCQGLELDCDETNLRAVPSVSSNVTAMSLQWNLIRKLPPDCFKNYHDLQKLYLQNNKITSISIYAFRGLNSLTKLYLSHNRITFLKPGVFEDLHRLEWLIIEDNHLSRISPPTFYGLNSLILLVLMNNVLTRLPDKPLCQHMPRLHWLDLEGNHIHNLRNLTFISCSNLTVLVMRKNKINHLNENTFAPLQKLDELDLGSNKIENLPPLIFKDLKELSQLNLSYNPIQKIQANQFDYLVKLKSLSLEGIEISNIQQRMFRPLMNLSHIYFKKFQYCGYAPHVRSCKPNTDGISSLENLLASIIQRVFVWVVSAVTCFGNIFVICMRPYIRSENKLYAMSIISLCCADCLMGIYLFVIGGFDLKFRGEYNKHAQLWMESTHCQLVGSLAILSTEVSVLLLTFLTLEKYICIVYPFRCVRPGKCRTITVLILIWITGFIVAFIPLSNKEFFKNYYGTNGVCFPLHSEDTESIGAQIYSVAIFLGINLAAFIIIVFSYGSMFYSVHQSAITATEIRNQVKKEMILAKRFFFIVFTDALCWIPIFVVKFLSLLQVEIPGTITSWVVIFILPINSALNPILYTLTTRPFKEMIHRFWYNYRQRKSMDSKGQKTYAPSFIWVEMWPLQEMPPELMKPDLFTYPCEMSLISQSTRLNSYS", "experiment": "Human RXFP1 Phospho-ERK Assay (Test H)", "type": "cell-based", "conditions": "HEK293s cells stably transfected with human RXFP1; read-out: Test H phospo-ERK assay EC50", "description": "(§1) Cells: HEK293s cells stably transfected with human RXFP1 in pIRESneo3 was employed."}, "human RXFP1 [5]": {"biological_target": "T1, human RXFP1", "experiment": "Human RXFP1 cGMP Production Assay (Test G)", "type": "cell-based", "conditions": "HEK293s cells stably transfected with human RXFP1", "description": "Human RXFP1 cGMP Production Assay (Test G)\nTo profile compounds for RXFP1 agonist activity with respect to cGMP production, the Green GENIe cGMP Assay (Montana Molecular; catalogue number D800G) was employed. […] Fluorescence is reduced when cGMP is bound to the biosensor.\nas §1\n• 2. […] Cells and transduction mastermix were mixed in proportions 30 μL cells and 20 μL mastermix for a single well. • 6. […] Plate was incubated in the dark at 37° C., 5% CO2 for 24 h.\n• 8. Medium was removed from plates using a Bluewasher (BluCatBio). • 9. 20 μL assay buffer was added with a Multidrop Combi (ThermoFisher). • 10. Plate was incubated in the dark at room temperature for 30 min prior to assaying. • 11. Plates were assayed using a FLIPR Tetra (Molecular Devices): 10 μL compound diluted with assay buffer was added to each well by the FLIPR Tetra and measuring green fluorescence over time for up to 3 h.\nAfter subtraction of background fluorescence (before addition of compounds), area under curve values from 0 to 90 min after compound addition was used for calculation of responses."}, "[6]": {"conditions": "cited from earlier work"}}}
{"compound": "COc1cc(F)c(O[C@H]2CC[C@@](C)(C(=O)O)CC2)cc1C(=O)N[C@@H]1[C@H]2CC[C@H](C2)[C@@H]1C(=O)NCC1(C)CCC1", "note": "[Compound (I), (1S,4s)-4-(2-fluoro-4-methoxy-5-(((1S,2R,3S,4R)-3-(((1-methylcyclobutyl)methyl)carbamoyl)bicyclo[2.2.1]heptan-2-yl)carbamoyl)phenoxy)-1-methylcyclohexane-1-carboxylic acid]", "values": [{"measurement": "solubility", "setting": "[1]", "value": "> 500", "unit": "µM"}, {"measurement": "Test B Human Plasma Protein Binding (% free)", "setting": "Human Plasma Protein", "value": 4.3, "unit": "% free"}, {"measurement": "solubility", "setting": "[2]; simulated gastric fluid pH 1.2 (SGF), simulated gastric fluid, kinetic from dmso stock, amorphous nanosuspension, extrapolation of light scattering to zero intensity", "value": 8, "unit": "µM"}, {"measurement": "Mean light scattering intensity", "setting": "[2]; total concentration 1.2 uM", "value": 0.16, "unit": "a.u."}, {"measurement": "Mean light scattering intensity", "setting": "[2]; total concentration 2.5 uM", "value": 0.28, "unit": "a.u."}, {"measurement": "Mean light scattering intensity", "setting": "[2]; total concentration 3.7 uM", "value": 0.33, "unit": "a.u."}, {"measurement": "Mean light scattering intensity", "setting": "[2]; total concentration 6.1 uM", "value": 0.33, "unit": "a.u."}, {"measurement": "Mean light scattering intensity", "setting": "[2]; total concentration 8.5 uM", "value": 1.71, "unit": "a.u."}, {"measurement": "Mean light scattering intensity", "setting": "[2]; total concentration 10.8 uM", "value": 4.94, "unit": "a.u."}, {"measurement": "Mean light scattering intensity", "setting": "[2]; total concentration 13.0 uM", "value": 8.19, "unit": "a.u."}, {"measurement": "Mean light scattering intensity", "setting": "[2]; total concentration 15.3 uM", "value": 11.77, "unit": "a.u."}, {"measurement": "Mean light scattering intensity", "setting": "[2]; total concentration 17.4 uM", "value": 15.33, "unit": "a.u."}, {"measurement": "Mean light scattering intensity", "setting": "[2]; total concentration 19.6 uM", "value": 18.47, "unit": "a.u."}]}
{"compound": "COc1cc(F)c(O[C@H]2CC[C@@](C)(C(=O)O)CC2)cc1C(=O)N[C@@H]1[C@H]2CC[C@H](C2)[C@@H]1C(=O)NCC1(C)CCC1", "note": "[Form A of Compound (I), (1S,4s)-4-(2-Fluoro-4-methoxy-5-(((1S,2R,3S,4R)-3-(((1-methylcyclobutyl)methyl)carbamoyl)bicyclo[2.2.1]heptan-2-yl)carbamoyl)phenoxy)-1-methylcyclohexane-1-carboxylic acid]", "values": [{"measurement": "solubility at 24 h", "setting": "[3]", "value": 0.4, "unit": "µM"}]}
{"compound": "relaxin2", "values": [{"measurement": "EC50", "setting": "human RXFP1 [4]", "value": 38, "unit": "pM"}, {"measurement": "EC50", "setting": "human RXFP1 [5]", "value": 85, "unit": "pM"}]}
{"compound": "serelaxin", "values": [{"measurement": "blood pressure drop", "setting": "[6]; approximately one third of the patients, intravenous", "value": "> 40", "unit": "mm Hg"}, {"measurement": "markers of cardiac, renal and hepatic damage and congestion", "setting": "[6]; hospitalized patients, continuous intravenous administration", "value": "improved"}, {"measurement": "clearance from the patients' circulation", "setting": "[6]; patients", "value": "rapid clearance"}]}
